# Key:
# [1] = tested on: HBV; experiment: Viral load production in AD38 cells by quantitative PCR of the core sequence; format: cell-based; conditions: Hepatitis B virus, 144 h, 10 μM compound, 6 days, supernatant qPCR, relative to DMSO control, read-out: AD38 Viral Load (%) (VL with cmpd/VL in DMSO control) at 10 μM
# Description: (§1) AD38 cells were then re-suspended with 10 mL of Treatment Medium and counted. Wells of a collagen coated 96-well NUNC microtiter plate were seeded at 50,000/well in 180 μL of Treatment Medium, and 20 μL of in treatment media with either 10% DMSO (Control) or a 10× solution of compound in 10% DMSO was added. Plates were incubated for 6 days at 37° C.
# Viral load production was assayed by quantitative PCR of the core sequence. […] The PCR mixture was incubated at 45° C. for 5 minutes, then 95° C. for 10 min, followed by 40 cycles of 10 seconds at 95° C. and 20 seconds at 60° C. Viral load was quantitated against known standards by using ViiA™ 7 Software. Viral load in the supernatant from wells with treated cells were compared against viral load in supernatant from DMSO control wells (≥3 per plate).
# [2] = tested on: AD38 cells; experiment: Viability of AD38 cells (Promega CellTiter-Glo); format: cell-based; conditions: 10 μM compound, 6 days, DMSO controls = 100%
# Description: as §1
# At the end of compound treatment period cell viability was assessed using a Promega CellTiter-Glo protocol. All supernatant was removed the previously treated 96-well microtiter plate, and 50 μL Tetracycline-free treatment medium (DMEM/F12 (1:1), 1× Pen/step (cat#: 30-002-CL, Mediatech, Inc), with 2% FBS, Tet-system approved (cat#: 631106, Clontech), and 1% DMSO was added back to each well. Another 50 μL of CellTiter-Glo reagent solution (Promega, G7573) was then added at room temperature and the contents mixed for 2 minutes on an orbital shaker to induce cell lysis. This was followed by incubation at room temperature for 10 minutes to stabilize the luminescent signal. The luminescence was recorded for 0.2 seconds per well on a Tecan multimode platereader (Infinite M1000 pro). The luminescent signal from each well was normalized against that of untreated (DMSO) control wells. All results in Table 3 were reported with percent viability (with controls being 100%).
SMILES,activity at 10 µM [1] [%],AD38 Viability Normalized Result (cmpd/DMSO %) at 10 μM [2] [%]
"COc1ccc(Cc2ccc(CNC(=O)c3ccc4c(c3)NC(=O)c3ccccc3O4)cn2)cc1 [Compound 837-A, N-((6-(4-methoxybenzyl)pyridin-3-yl)methyl)-11-oxo-10, 11-dihydrodibenzo[b,f][1, 4]oxazepine-8-carboxamide]",5.6,105
O=C(NCc1ccc(-c2ccc(O)c(Cl)c2)nc1)c1ccc2c(c1)NC(=O)c1ccccc1S2(=O)=O [Compound 784],137,103
O=C(NCc1cnc(-c2ccc(O)cc2)nc1)c1ccc2c(c1)NC(=O)c1ccccc1S2(=O)=O [Compound 788],1.9,111
O=C(NCc1cnc(-c2ccc3[nH]ncc3c2)nc1)c1ccc2c(c1)NC(=O)c1ccccc1S2(=O)=O [Compound 790],1.7,103
"COc1ccc(Cc2ccc(CNC(=O)c3ccc4c(c3)NC(=O)c3ccccc3S4(=O)=O)cn2)cc1 [Compound 825-A, N-((6-(4-methoxybenzyl)pyridin-3-yl)methyl)-11-oxo-10, 11-dihydrodibenzo[b,f][1,4]thiazepine-8-carboxamide 5,5-dioxide]",6.2,58
"NC(=O)c1ccc(-c2ncc(CNC(=O)c3ccc4c(c3)NC(=O)c3ccccc3S4(=O)=O)cn2)cc1 [Compound 872, N-((2-(4-carbamoylphenyl)pyrimidin-5-yl)methyl)-11-oxo-10, 11-dihydrodibenzo[b,f][1,4]thiazepine-8-carboxamide 5,5-dioxide]",5.2,104
O=C(NCc1cccnc1)c1ccc2c(c1)NC(=O)c1ccc(Cl)cc1S2 [Compound 543],1.2,24
O=C(NCc1cccnc1)c1ccc2c(c1)NC(=O)c1cc(Cl)ccc1S2 [Compound 540],0.6,52
O=C(NCc1nnc(-c2ccc(O)cc2)s1)c1ccc2c(c1)NC(=O)c1ccccc1O2 [Compound 739],62.2,108
"N#Cc1ccc(-c2ccc(CNC(=O)c3ccc4c(c3)NC(=O)c3ccccc3S4(=O)=O)nc2)cc1 [Compound 869, N-((5-(4-cyanophenyl)pyridin-2-yl)methyl)-11-oxo-10,11-dihydrodibenzo[b, f][1,4]thiazepine-8-carboxamide 5,5-dioxide]",13.3,83
CC1c2ccc(C(=O)NCc3cncnc3)cc2NC(=O)c2ccccc21 (centres unmarked) [Compound 545],1.4,95
N#Cc1ccc(-c2ccc(CNC(=O)c3ccc4c(c3)NC(=O)c3ccccc3S4(=O)=O)cn2)cc1 [Compound 867],0.6,86
Cc1cc2c(cc1C(=O)NCc1cncnc1)NC(=O)c1ccccc1S2 [Compound 495],23.1,96
O=C(NCCc1cccnc1)c1ccc2c(c1)NC(=O)c1ccccc1N2 [Compound 506],31.6,100
O=C(NCc1ccc(-c2ccc(O)cc2F)nc1)c1ccc2c(c1)NC(=O)c1ccccc1S2(=O)=O [Compound 785],2.1,94
O=C(NCc1ccc(-c2ccc(O)cc2)nc1)c1ccc2c(c1)NC(=O)c1ccccc1S2(=O)=O [Compound 778],3.2,104
O=C(NCc1cccnc1)c1ccc2c(c1)NC(=O)c1ccccc1N2 [Compound 507],51.9,103
"NC(=O)c1ccc(-c2ccc(CNC(=O)c3ccc4c(c3)NC(=O)c3ccccc3S4(=O)=O)cn2)cc1 [Compound 868, N-((6-(4-carbamoylphenyl)pyridin-3-yl)methyl)-11-oxo-10,11-dihydrodibenzo[b,f][1,4]thiazepine-8-carboxamide 5,5-dioxide]",27.7,103
O=C(NCc1ccc(-c2ccccc2CO)nc1)c1ccc2c(c1)NC(=O)c1ccccc1S2(=O)=O [Compound 843],18.8,103
O=C(NCc1ccc(-c2cc(F)c(O)c(F)c2)nc1)c1ccc2c(c1)NC(=O)c1ccccc1S2(=O)=O [Compound 787],15.5,100

SMILES,activity at 10 µM [1] [%],AD38 Viability Normalized Result (cmpd/DMSO %) at 10 μM [2] [%]
O=C(NCc1cnc(-c2ccc(O)c(Cl)c2)nc1)c1ccc2c(c1)NC(=O)c1ccccc1S2(=O)=O [Compound 794],1.3,104
Nc1ncc(-c2ccc(CNC(=O)c3ccc4c(c3)NC(=O)c3ccccc3S4(=O)=O)cn2)cn1 [Compound 782],25.4,108
O=C(NCc1nnc(-c2ccc(O)cc2)s1)c1ccc2c(c1)NC(=O)c1ccccc1S2(=O)=O [Compound 807],0.9,96
O=C(NCc1ccc(-c2ccc3[nH]ncc3c2)nc1)c1ccc2c(c1)NC(=O)c1ccccc1S2(=O)=O [Compound 780],1.8,106
Cc1cc2c(cc1C(=O)NCc1cccnc1)NC(=O)c1ccccc1S2 [Compound 497],38.7,97
O=C(NCc1ccc(-c2ccc(O)c(F)c2)nc1)c1ccc2c(c1)NC(=O)c1ccccc1S2(=O)=O [Compound 786],5,105
O=C(NCc1cncnc1)c1ccc2c(c1)NC(=O)c1cc(Cl)ccc1S2 [Compound 539],0.2,0
O=C(NCc1cnc(-c2ccccc2CO)nc1)c1ccc2c(c1)NC(=O)c1ccccc1S2(=O)=O [Compound 844],10.2,103
"NC(=O)c1ccc(-c2ccc(CNC(=O)c3ccc4c(c3)NC(=O)c3ccccc3S4(=O)=O)nc2)cc1 [Compound 870, N-((5-(4-carbamoylphenyl)pyridin-2-yl)methyl)-11-oxo-10, 11-dihydrodibenzo[b,f][1,4]thiazepine-8-carboxamide 5,5-dioxide]",82.7,106
O=C(NCc1cnc(C(F)(F)F)nc1)c1ccc2c(c1)NC(=O)c1ccccc1S2(=O)=O [Compound 876],65.5,101
O=C(NCc1ccc(-c2ccc3[nH]cnc3c2)nc1)c1ccc2c(c1)NC(=O)c1ccccc1S2(=O)=O [Compound 781],7.3,102
O=C(NCc1cncnc1)c1ccc2c(c1)NC(=O)c1ccc(Cl)cc1S2 [Compound 542],1.6,106
O=C(NCc1cnc(-c2ccc(O)cc2F)nc1)c1ccc2c(c1)NC(=O)c1ccccc1S2(=O)=O [Compound 795],6.4,106
Nc1ncc(-c2ncc(CNC(=O)c3ccc4c(c3)NC(=O)c3ccccc3S4(=O)=O)cn2)cn1 [Compound 792],23.1,105
O=C(NCc1ccc(-c2ccc(O)cc2Cl)nc1)c1ccc2c(c1)NC(=O)c1ccccc1S2(=O)=O [Compound 783],6.3,105
O=C(NCc1cnc(-c2ccc(O)c(F)c2)nc1)c1ccc2c(c1)NC(=O)c1ccccc1S2(=O)=O [Compound 796],1.4,111
"N#Cc1ccc(-c2ncc(CNC(=O)c3ccc4c(c3)NC(=O)c3ccccc3S4(=O)=O)cn2)cc1 [Compound 871, N-((2-(4-cyanophenyl)pyrimidin-5-yl)methyl)-11-oxo-10, 11-dihydrodibenzo[b,f][1,4]thiazepine-8-carboxamide 5,5-dioxide]",1.3,96
O=C(NCCc1ccccn1)c1ccc2c(c1)NC(=O)c1ccccc1N2 [Compound 505],48.2,103
O=C(NCc1cnc(-c2ccc3[nH]ccc3c2)nc1)c1ccc2c(c1)NC(=O)c1ccccc1S2(=O)=O [Compound 789],0.4,108
CC1c2ccc(C(=O)NCc3cccnc3)cc2NC(=O)c2ccccc21 (centres unmarked) [Compound 547],1.5,99
